This is an account of results in patent US11071727B2, “Therapeutic targeting of proteolytic cleavage of the mixed lineage leukemia gene product (MLL1) by taspase1 using kinase inhibitors” (Northwestern University, priority 2018, dated 2021).

One assay concerns MLL1. Kind of assay: Western blot of full-length MLL1 protein levels in cells treated with CKII inhibitors. In kind it is cell-based, human. The conditions noted are these: 293T, MCF7 and HCT116 cells, 0-20 μM, 30 hours, Western blot with MLL1C antibody. Here is the method: (§1) FIG. 5. CKII inhibitors selectively increase full-length MLL1 protein levels by decreasing the phosphorylation of MLL1 near the cleavage sites. (A) Conservation of the sequences flanking MLL1-CS2, MLL2 and TFIIA cleavage sites and phosphorylated serine and threonine residues after the cleavage sites (highlighted in red). (B) and (C) 293T cells were transfected with vector control (VT), WT, AA or DD reporter constructs of MLL1-p75 or TFIIA. Western blot was performed with anti-Flag antibody for MLL1 (p75: FL, p47: cleaved) or TFIIA (p54: FL, p47: cleaved). (D) and (E) 293T cells were transfected with WT or AA reporter constructs of MLL1-p75 or TFIIA in the presence or absence of HA-taspase1. Western blot was performed with anti-Flag antibody for MLL1 or TFIIA, or anti-HA antibody for taspase1. (F) 293T cells were infected with shRNAs against CKIIα or CKIIα′. Western blot was performed with anti-MLL1C antibody for MLL1 full-length protein levels, and CKIIα or CKIIα′ for knockdown efficiency. (G) 293T cells were treated with DMSO or 10 μM CX-4945 for 30 hours. Cells were harvested and lysed for Western blot against MLL1, MLL2 or TFIIA using β-tubulin as the loading control. (H) and (I) 293T taspase1 KO cells were pre-treated with CX-4945 (3 μM) or TTP22 (10 μM) for 30 hours. Whole cell lysates from the two conditions were incubated with increasing concentrations of his-taspase1 and subject to in vitro taspase1 assay.
FIG. 13. CKII inhibitors increase full-length MLL1 protein levels. (A) Prediction of kinases that phosphorylate MLL1 near the taspase1 cleavage site. (B) Structure of the CKII inhibitors CX-4945, TTP22, DMAT and TTB. (C) Comparison of the IC50 and molecular weight of the four CKII inhibitors. […] Quantification of the band intensities was performed by ImageJ software. (E) and (F) in vitro taspase1 cleavage assay. Taspase1 KO cell lysates were incubated with recombinant his-tagged taspase1 (0, 1, 10, 100 or 1000 ng) and subject to in vitro taspase1 cleavage assay. Cleavage efficiency was shown as the blotting for MLL1 and TFIIA using Hsp90 as the loading control.
Cell culture. […]
(Immunoblotting shows a protein as a band on a membrane.)

A further assay relates to MLL1 chromatin occupancy. Kind of assay: ChIP-seq of MLL1 occupancy in 293T cells. The format is cell-based, human. The note with it: relative to DMSO control. The protocol:
FIG. 6. CKII inhibition increases genome-wide MLL occupancy and excludes SEC recruitment in MLL leukemia cells. (A) and (B) MLL1C occupancy in CX-4945 or TTP22 treated cells were shown relative to DMSO control. […] (C) Track examples of the MLL1 occupancy at the promoter regions of ELF2 and C6orf211. (D) CX-4945 inhibition of leukemia cell proliferation. Multiple MLL leukemia (orange lines) and non-MLL leukemia (blue lines) were cultured with different doses of CX-4945 for 3 days. Cell number was determined by cell counter and normalized to DMSO control. (E) SEM cells were treated with 0, 5 or 10 μM of CX-4945 for 30 hours and western blot was performed to determine the MLL1 full-length protein levels and MLL-AF4 fusion protein levels. (F) MLL-AFF1, AFF4 and ELL2 occupancies were decreased by CX-4945 treatment in SEM cells.
ChIP-seq Analysis. 5×10^7 cells were used for each ChIP assay, as performed as previously described (Chen et al. 2015). Peaks were called with MACS v1.4.2 (Zhang et al. 2008) using default parameters and were annotated by the HOMER software (Heinz et al. 2010). Metaplots were generated using ngsplot (Shen et al. 2014). […] Differential occupancy of MLL1 was evaluated by edgeR, and peaks with Benjamini-Hochburg adjusted p-values less than 0.05 were considered to be differentially occupied. […]

The test system of assay [1] is MLL1 cleavage by taspase1. Kind of assay: in vitro taspase1 cleavage assay on lysates of pretreated taspase1 KO cells. The format is biochemical, human. The conditions noted are these: 293T taspase1 KO cells pretreated 30 hours with CX-4945 (3 μM) or TTP22 (10 μM), compared with DMSO control. Here is the method: as §1, with “(H) and (I) 293T taspase1 KO cells were pre-treated with CX-4945 (3 μM) or TTP22 (10 μM) for 30 hours. Whole cell lysates from the two conditions were incubated with increasing concentrations of his-taspase1 and subject to in vitro taspase1 assay.” left out
in vitro taspase1 cleavage assay. […] Cleavage efficiency was detected by western blot against MLL1C and TFIIA using Hsp90 as the loading control.

For the molecule `Cc1ccc(-c2csc3ncnc(SCCC(=O)O)c23)cc1` [TTP22, 3-[[5-(4-Methylphenyl)thieno[2,3-d]pyrimidin-4-yl]thio]propanoic acid], the “MLL1 full-length protein levels” value with MLL1 was “dose-dependent increase of MLL1 full-length protein levels”. Moreover, the “MLL1 occupancy (genome-wide)” value with MLL1 chromatin occupancy is listed as “global increase of MLL1 occupancy”. In assay [1], the “cleavage efficiency by recombinant taspase1 protein” value is “cleavage efficiency was significantly diminished”.
